Data from US20200113910A1, “TRIAZINETRIONE DERIVATIVES AND THEIR USE AS MODULATORS OF NEUROTROPHIN RECEPTOR AND RECEPTOR TYROSINE KINASES” (ALZECURE PHARMA AB, priority 2016, published 2020).

Key:
[1] = system: ephrin type-B receptor 2 (EphB2); details: Suzuki et al., FEBS Open Bio 2016; cited from earlier work
C57/BI6 mice [2] = assay: Passive avoidance task, scopolamine-treated mice (Example 1); type: in vivo; details: 20 mg/kg i.p. once per day for 4 days; scopolamine 0.3 mg/kg s.c.; FIG. 1
Description: (§1) Passive avoidance (PA) is an aversive learning task based on classical (Pavlovian) fear conditioning that allows for analysis of both facilitation and impairment of memory function by adjusting the unconditioned stimulus, i.e. the electrical foot shock. Commonly a cognitive-impairing agent is administered to the animals to mimic the neurochemical disturbances present in various cognitive disorders e.g. cholinergic (scopolamine) and glutamatergic (MK-801) deficits.
(§2) Prior to testing, the animals are brought to the experimental room where they were allowed to habituate for 60 min. The test is conducted using a modified shuttle box with two communicating compartments of equal size with a small sliding door built into the separating wall and a stainless steel bar floor. One of the compartments is not illuminated and thus black whereas the other compartment (the light one) is illuminated by an electric bulb, installed on the top of a plexiglass cover. The PA training is conducted in a single session. […] Latency to cross over into the dark compartment (training latency) is recorded. […] The latency to cross over into the dark compartment with all four feet is measured (retention latency) as well as time in bright compartment and a number of other relevant parameters (e.g. number of visits in the dark compartment). […]

[3] = system: cellular prion protein (PrP^C); details: Suzuki et al., FEBS Open Bio 2016; cited from earlier work
TrkC = molecular target: T1, TrkC (Homo sapiens, UniProt Q16288); assay: Enzyme Fragment Complementation cell-based assay, TrkC; details: U2OS-cells over-expressing TrkC; ligand NT-3 10 ng/mL
T1 construct: expressed in transfected cells; host or cells: U2OS
Text: (§3) A high throughput cell-based screen has been used to identify positive modulators of TrkA, TrkB and TrkC. The screen involves the use of cell-based assay overexpressing TrkA, TrkB or TrkC. The purpose of the assay is to identify compounds that modulate neurotrophin signalling (Forsell et al 2012). The assay can be used in inhibitor mode using a high concentration of ligand, in modulator mode using an intermediate concentration and in agonist mode using a low concentration of ligand.
(§4) The assay uses Enzyme Fragment Complementation (EFC) technique, which is a proximity-based assay. Briefly, cells used in this assay over-express two fusion proteins, i.e. the receptor, which can be either one of TrkA, TrkB, TrkC, IGF1R or FGFR1, fused to a small peptide of 8-galactosidase and an adaptor protein, i.e. SHC1 (or any other Trk-adaptor protein) fused to the major part of 8-galactosidase. […] The proximity between the small activating peptide on the receptor and the major part of 8-galactosidase on the adaptor protein leads to an active 8-galactosidase enzyme. The activation of the receptor is quantified by measuring the amount of active 8-galactosidase by its conversion of a non-luminescent substrate into a luminescent product.
(§5) U2OS-cells, over-expressing TrkA or TrkB or TrkC, are plated in 96- or 384-well plates and incubated overnight. Alternatively, cryopreserved HEK293-cells expressing IGFR1 or cryopreserved U2OS-cells expressing FGFR1 were plated in 96- or 384-well plates. On the following day, test compound was pre-mixed with ligand (NGF, BDNF, NT-3, IGF-1 or basic fibroblast growth factor (bFGF(FGF-2))) and the ligand-compound mixture is then added to the cells to yield a final ligand concentration of typically 10 ng/mL (or as indicated in FIGS. 3 and 4). After 3 hours of incubation at room temperature, the incubation is stopped by the addition of a β-galactosidase substrate mixture containing detergents. The substrate mixture is incubated for 60 minutes at ambient temperature. The luminescence is thereafter read by the use of a plate reader.
(§6) The potency is expressed as EC50 (pM) and the efficacy as % stimulation over 10 ng/mL of ligand . The ligands used was: NGF (for TrkA assay), BDNF (for TrkB assay), NT-3 (for TrkC assay) bFGF (for FGFR1 assay), IGF-1 (for IGFR1 assay), respectively.

FGFR1 = molecular target: T2, FGFR1 (Homo sapiens, UniProt P11362); assay: Enzyme Fragment Complementation cell-based assay, FGFR1; details: U2OS-cells expressing FGFR1; ligand bFGF 10 ng/mL
T2 construct: expressed in transfected cells; host or cells: U2OS (cryopreserved)
Text: as §4, §5, §6

IGF1R = molecular target: T3, IGF1R (Homo sapiens, UniProt P08069); assay: Enzyme Fragment Complementation cell-based assay, IGF1R; details: HEK293-cells expressing IGFR1; ligand IGF-1 10 ng/mL
T3 construct: expressed in transfected cells; host or cells: HEK293 (cryopreserved)
Text: as §4, §5, §6

TrkA = molecular target: T4, TrkA (Homo sapiens, UniProt P04629); assay: Enzyme Fragment Complementation cell-based assay, TrkA; details: U2OS-cells over-expressing TrkA; ligand NGF 10 ng/mL
T4 construct: expressed in transfected cells; host or cells: U2OS
Text: as §3, §4, §5, §6

TrkB = molecular target: T5, TrkB (Homo sapiens, UniProt Q16620); assay: Enzyme Fragment Complementation cell-based assay, TrkB; details: for TrkB efficacy, % stimulation over 10 ng/mL of ligand: U2OS-cells over-expressing TrkB, ligand BDNF 10 ng/mL
T5 construct: expressed in transfected cells; host or cells: U2OS
Text: as §3, §4, §5, §6

C57/BI6 mice [4] = assay: Passive avoidance task, MK-801-treated mice (Example 2); type: in vivo; details: different doses i.p. once per day for 4 days; MK-801 0.3 mg/kg s.c.; FIG. 2
Description: as §1, §2

[5] = FIG. 3, cells stimulated with or without BDNF

T5 sequence (Q16620 32-822): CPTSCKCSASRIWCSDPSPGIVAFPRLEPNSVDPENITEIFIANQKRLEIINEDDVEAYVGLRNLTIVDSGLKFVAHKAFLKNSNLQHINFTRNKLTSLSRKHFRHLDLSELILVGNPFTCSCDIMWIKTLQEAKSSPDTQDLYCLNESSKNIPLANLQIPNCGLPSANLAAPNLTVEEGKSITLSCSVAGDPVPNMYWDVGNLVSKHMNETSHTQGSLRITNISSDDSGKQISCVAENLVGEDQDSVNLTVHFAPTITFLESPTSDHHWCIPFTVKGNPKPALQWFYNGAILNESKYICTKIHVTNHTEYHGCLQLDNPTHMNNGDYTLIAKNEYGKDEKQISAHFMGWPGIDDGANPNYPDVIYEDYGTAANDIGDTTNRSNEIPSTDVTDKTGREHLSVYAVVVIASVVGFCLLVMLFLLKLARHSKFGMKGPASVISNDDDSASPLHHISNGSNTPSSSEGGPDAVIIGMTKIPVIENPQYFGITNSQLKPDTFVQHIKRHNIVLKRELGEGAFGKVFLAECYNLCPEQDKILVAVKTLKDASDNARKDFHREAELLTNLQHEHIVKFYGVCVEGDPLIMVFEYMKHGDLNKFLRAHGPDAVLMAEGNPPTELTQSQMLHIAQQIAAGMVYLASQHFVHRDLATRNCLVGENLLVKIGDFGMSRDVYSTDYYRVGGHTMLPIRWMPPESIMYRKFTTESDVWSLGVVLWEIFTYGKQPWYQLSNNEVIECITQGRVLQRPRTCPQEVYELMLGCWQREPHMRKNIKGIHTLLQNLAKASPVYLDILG
T3 sequence (P08069 31-736 limits assumed): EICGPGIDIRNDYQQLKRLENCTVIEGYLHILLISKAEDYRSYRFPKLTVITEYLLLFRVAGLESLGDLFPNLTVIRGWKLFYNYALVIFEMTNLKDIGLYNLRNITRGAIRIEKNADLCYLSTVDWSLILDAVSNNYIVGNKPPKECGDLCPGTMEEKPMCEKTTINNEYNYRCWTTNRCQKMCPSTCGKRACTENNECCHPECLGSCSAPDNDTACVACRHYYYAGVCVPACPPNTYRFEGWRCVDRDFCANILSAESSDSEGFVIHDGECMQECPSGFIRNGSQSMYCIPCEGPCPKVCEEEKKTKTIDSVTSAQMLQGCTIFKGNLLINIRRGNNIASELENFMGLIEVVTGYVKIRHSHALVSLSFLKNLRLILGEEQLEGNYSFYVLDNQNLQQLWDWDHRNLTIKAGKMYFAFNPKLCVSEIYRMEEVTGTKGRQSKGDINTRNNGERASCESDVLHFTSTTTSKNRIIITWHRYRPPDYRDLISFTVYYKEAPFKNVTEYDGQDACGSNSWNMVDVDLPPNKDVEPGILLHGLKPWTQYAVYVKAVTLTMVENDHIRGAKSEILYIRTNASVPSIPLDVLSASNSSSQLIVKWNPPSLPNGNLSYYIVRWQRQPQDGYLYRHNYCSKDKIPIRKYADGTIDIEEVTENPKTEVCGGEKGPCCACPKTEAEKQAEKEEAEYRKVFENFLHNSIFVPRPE
T3 sequence (P08069 741-1367 limits assumed): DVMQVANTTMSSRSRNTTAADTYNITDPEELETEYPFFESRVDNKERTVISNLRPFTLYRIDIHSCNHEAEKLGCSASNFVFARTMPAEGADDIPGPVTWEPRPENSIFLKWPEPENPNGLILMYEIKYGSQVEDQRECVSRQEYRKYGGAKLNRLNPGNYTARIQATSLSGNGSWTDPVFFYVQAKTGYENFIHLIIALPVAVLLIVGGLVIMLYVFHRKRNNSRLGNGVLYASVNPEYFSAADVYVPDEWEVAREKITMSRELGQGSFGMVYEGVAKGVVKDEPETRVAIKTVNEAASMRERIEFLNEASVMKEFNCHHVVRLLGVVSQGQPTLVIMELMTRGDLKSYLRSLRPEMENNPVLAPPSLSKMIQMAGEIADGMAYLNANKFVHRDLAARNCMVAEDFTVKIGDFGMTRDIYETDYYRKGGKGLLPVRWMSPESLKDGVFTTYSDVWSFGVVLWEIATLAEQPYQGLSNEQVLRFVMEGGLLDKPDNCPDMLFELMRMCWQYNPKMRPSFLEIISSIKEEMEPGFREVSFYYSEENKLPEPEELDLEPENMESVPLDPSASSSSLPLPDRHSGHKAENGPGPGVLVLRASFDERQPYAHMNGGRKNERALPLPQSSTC
T1 sequence (Q16288 32-839): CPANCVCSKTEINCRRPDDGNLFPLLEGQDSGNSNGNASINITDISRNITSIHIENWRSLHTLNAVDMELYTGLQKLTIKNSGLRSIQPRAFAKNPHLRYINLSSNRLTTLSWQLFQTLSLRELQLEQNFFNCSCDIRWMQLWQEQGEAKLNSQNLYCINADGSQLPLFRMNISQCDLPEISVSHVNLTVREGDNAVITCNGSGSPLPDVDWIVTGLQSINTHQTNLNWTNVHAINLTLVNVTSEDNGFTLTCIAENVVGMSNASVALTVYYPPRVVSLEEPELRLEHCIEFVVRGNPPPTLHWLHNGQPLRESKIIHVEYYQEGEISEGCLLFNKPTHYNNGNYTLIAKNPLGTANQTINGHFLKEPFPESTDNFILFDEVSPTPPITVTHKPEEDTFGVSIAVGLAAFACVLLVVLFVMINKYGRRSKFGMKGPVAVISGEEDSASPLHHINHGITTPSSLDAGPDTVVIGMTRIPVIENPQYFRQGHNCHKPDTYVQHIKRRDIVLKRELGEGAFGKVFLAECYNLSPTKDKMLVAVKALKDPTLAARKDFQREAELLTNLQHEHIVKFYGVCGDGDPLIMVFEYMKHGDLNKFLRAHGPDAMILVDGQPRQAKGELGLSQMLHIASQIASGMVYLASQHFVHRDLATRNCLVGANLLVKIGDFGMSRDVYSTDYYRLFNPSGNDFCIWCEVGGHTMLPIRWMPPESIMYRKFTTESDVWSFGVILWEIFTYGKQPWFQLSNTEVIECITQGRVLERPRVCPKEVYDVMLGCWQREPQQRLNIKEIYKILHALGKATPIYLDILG
T2 sequence (P11362 22-822): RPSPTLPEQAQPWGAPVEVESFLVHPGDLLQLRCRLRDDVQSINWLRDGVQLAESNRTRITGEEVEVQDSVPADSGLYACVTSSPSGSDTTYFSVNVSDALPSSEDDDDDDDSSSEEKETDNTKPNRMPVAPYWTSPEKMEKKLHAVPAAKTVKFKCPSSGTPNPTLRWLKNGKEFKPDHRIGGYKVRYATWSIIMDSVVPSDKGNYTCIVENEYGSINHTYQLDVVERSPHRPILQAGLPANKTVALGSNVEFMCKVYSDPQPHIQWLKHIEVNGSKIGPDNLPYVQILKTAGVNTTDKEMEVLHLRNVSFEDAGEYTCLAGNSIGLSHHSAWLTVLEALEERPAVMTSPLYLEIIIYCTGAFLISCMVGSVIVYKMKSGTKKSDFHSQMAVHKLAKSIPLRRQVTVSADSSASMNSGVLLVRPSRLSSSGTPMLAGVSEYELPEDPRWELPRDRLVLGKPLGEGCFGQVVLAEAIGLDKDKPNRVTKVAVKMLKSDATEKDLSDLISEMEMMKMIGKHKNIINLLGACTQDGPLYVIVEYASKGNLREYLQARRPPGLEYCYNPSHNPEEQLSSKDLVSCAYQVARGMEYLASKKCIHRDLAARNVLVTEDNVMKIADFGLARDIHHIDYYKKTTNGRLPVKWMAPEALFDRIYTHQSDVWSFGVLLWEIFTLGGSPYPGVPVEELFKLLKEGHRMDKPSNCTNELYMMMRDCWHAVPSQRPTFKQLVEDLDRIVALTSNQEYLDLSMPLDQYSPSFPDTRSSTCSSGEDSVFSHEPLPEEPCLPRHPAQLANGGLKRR
T4 sequence (P04629 33-796): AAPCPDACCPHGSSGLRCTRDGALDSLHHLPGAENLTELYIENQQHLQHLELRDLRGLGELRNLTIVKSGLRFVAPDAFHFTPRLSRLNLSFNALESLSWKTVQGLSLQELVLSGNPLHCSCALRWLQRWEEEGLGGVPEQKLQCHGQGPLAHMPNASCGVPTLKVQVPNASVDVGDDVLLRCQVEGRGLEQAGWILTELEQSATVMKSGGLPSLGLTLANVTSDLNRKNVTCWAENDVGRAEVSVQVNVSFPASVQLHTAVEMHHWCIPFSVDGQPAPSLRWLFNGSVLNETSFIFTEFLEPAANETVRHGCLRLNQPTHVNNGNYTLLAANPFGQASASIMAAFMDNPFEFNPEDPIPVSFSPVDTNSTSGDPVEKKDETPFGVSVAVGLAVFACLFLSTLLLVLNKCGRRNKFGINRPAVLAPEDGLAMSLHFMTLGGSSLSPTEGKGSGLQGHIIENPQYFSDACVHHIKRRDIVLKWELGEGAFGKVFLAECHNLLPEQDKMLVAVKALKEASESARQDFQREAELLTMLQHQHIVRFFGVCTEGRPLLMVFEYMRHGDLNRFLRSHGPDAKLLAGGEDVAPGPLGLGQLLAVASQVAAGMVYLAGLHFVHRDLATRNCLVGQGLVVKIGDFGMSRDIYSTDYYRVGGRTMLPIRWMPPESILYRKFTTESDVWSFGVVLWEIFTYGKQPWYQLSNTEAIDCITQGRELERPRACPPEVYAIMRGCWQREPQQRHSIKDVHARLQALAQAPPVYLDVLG

Cc1cc(-n2c(=O)[nH]c(=O)n(C)c2=O)ccc1Oc1ccc(SC(F)(F)F)cc1 [Compound 1, 1-methyl-3-(3-methyl-4-{4-[(trifluoromethyl)sulfanyl]phenoxy}phenyl)-1,3,5-triazinane-2,4,6-trione]
inhibition of binding of β-amyloid oligomers to EphB2 [1]: 30%
retention latency in passive avoidance task (cognitive function) (C57/BI6 mice [2]): increased retention latency
inhibitory activity at the cellular prion protein (PrP^C) [3]: lack of similar inhibitory activity
TrkC efficacy, % stimulation over 10 ng/mL of ligand (TrkC): 87%
FGFR1 efficacy, % stimulation over 10 ng/mL of ligand (FGFR1): 73%
IGF1R efficacy, % stimulation over 10 ng/mL of ligand (IGF1R): 83%
TrkA efficacy, % stimulation over 10 ng/mL of ligand (TrkA): 109%
decrease of activity at the two highest concentrations tested, TrkB expressing cells (TrkB; [5]): significantly decreases
dose-response curve with BDNF as ligand in TrkB expressing cells (TrkB; [5]): no clear dose-response curve
TrkB efficacy, % stimulation over 10 ng/mL of ligand (TrkB): 124%

Cc1cc(-n2c(=O)[nH]c(=O)n(C)c2=O)ccc1Oc1ccc(S(=O)(=O)C(F)(F)F)cc1 [Compound 2, 1-methyl-3-[3-methyl-4-(4-trifluoromethanesulfonylphenoxy)phenyl]-1,3,5-triazinane-2,4,6-trione]
TrkC efficacy, % stimulation over 10 ng/mL of ligand (TrkC): 70%
FGFR1 efficacy, % stimulation over 10 ng/mL of ligand (FGFR1): 43%
IGF1R efficacy, % stimulation over 10 ng/mL of ligand (IGF1R): 25%
TrkA efficacy, % stimulation over 10 ng/mL of ligand (TrkA): 138%
decrease of activity at the two highest concentrations tested, TrkB expressing cells (TrkB; [5]): not observed
TrkB efficacy, % stimulation over 10 ng/mL of ligand (TrkB): 232%
total time spent in bright compartment in passive avoidance task (cognitive function) (C57/BI6 mice [4]): increased time spent in the bright area

Cc1cc(-n2c(=O)[nH]c(=O)n(C)c2=O)ccc1Oc1ccc([S+]([O-])C(F)(F)F)cc1 (centres unmarked) [Compound 3, 1-methyl-3-[3-methyl-4-(4-trifluoromethanesulfinylphenoxy)phenyl]-1,3,5-triazinane-2,4,6-trione]
TrkC efficacy, % stimulation over 10 ng/mL of ligand (TrkC): 74%
FGFR1 efficacy, % stimulation over 10 ng/mL of ligand (FGFR1): 102%
IGF1R efficacy, % stimulation over 10 ng/mL of ligand (IGF1R): 109%
TrkA efficacy, % stimulation over 10 ng/mL of ligand (TrkA): 143%
decrease of activity at the two highest concentrations tested, TrkB expressing cells (TrkB; [5]): not observed
TrkB efficacy, % stimulation over 10 ng/mL of ligand (TrkB): 196%

Cc1cc(-n2c(=O)[nH]c(=O)n(-c3ccccc3)c2=O)ccc1Oc1ccc([S+]([O-])C(F)(F)F)cc1 (centres unmarked) [Compound 4, 1-[3-methyl-4-(4-trifluoromethanesulfinylphenoxy)phenyl]-3-phenyl-1,3,5-triazinane-2,4,6-trione]
TrkC efficacy, % stimulation over 10 ng/mL of ligand (TrkC): 69%
TrkA efficacy, % stimulation over 10 ng/mL of ligand (TrkA): 128%
TrkB efficacy, % stimulation over 10 ng/mL of ligand (TrkB): 217%

Cc1cc(-n2c(=O)[nH]c(=O)n(-c3ccccc3)c2=O)ccc1Oc1ccc(SC(F)(F)F)cc1 [Compound 5, 1-(3-methyl-4-{4-[(trifluoromethyl)sulfanyl]phenoxy}phenyl)-3-phenyl-1,3,5-triazinane-2,4,6-trione]
TrkC efficacy, % stimulation over 10 ng/mL of ligand (TrkC): 84%
TrkA efficacy, % stimulation over 10 ng/mL of ligand (TrkA): 112%
TrkB efficacy, % stimulation over 10 ng/mL of ligand (TrkB): 210%

Cc1cc(-n2c(=O)[nH]c(=O)n(-c3ccccc3)c2=O)ccc1Oc1ccc(S(=O)(=O)C(F)(F)F)cc1 [Compound 6, 1-[-3-methyl-4-(4-trifluoromethanesulfonylphenoxy)phenyl]-3-phenyl-1,3,5-triazinane-2,4,6-trione]
TrkC efficacy, % stimulation over 10 ng/mL of ligand (TrkC): 124%
TrkA efficacy, % stimulation over 10 ng/mL of ligand (TrkA): 147%
TrkB efficacy, % stimulation over 10 ng/mL of ligand (TrkB): 300%
